The values that follow come from PubChem BioAssay (NCI).

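The compound was tested at five concentrations on cells cultured in 96-well plates, with a 48-hour exposure period. TGI denotes the concentration required for complete inhibition of growth.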

Some test systems named below: ACHN renal; COLO 205 colon; HL-60(TB) leukemia; HOP-62 NSCLC; HOP-92 NSCLC; NCI-H23 lung; OVCAR-3 ovarian; SK-MEL-28 melanoma; SN12C renal; T-47D breast.
Test in all cases: DTP human tumour cell line panel, 48 h

For orientation: TGI means the concentration at which net growth stops. Lower therefore signals more potent growth arrest. As for `O=C(O)c1ccc(OCc2nc3cc(C(F)(F)F)ccc3nc2-c2ccccc2)cc1`, the TGI in the test on ACHN renal was 67.6 µM; in the test on COLO 205 colon it was 37.8 µM; with HL-60(TB) leukemia it was more than 100 µM; with HOP-62 NSCLC, more than 100 µM; in the test with HOP-92 NSCLC it was more than 100 µM; in the test on NCI-H23 lung, more than 100 µM. In addition, the TGI in the test with OVCAR-3 ovarian, in the test with SK-MEL-28 melanoma, in the test on SN12C renal and with T-47D breast was more than 100 µM each time.
`O=C1c2ccccc2C2(c3ccc(Cl)cc3)N[C@H]3CCCC[C@@H]3N12` (stereo not given in full): the total growth inhibition concentration (TGI) in the test with ACHN renal, in the test on COLO 205 colon, in the test on HL-60(TB) leukemia, with HOP-62 NSCLC, in the test with HOP-92 NSCLC and in the test on NCI-H23 lung was more than 100 µM each time. The TGI in the test with OVCAR-3 ovarian, in the test with SK-MEL-28 melanoma, in the test with SN12C renal and in the test on T-47D breast was more than 100 µM in each case.
Regarding `C=CC[C@]12C=C(OC)[C@@H](O)[C@](OC)(C(c3cc(OC)c4c(c3)OCO4)[C@H]1C)[C@H]2OC(C)=O` (stereo not given in full), the TGI in the test on ACHN renal, in the test with COLO 205 colon, in the test with HL-60(TB) leukemia, in the test on HOP-62 NSCLC, in the test with HOP-92 NSCLC and in the test on NCI-H23 lung was more than 100 µM throughout. Further, the TGI in the test on OVCAR-3 ovarian, with SK-MEL-28 melanoma, in the test on SN12C renal and in the test with T-47D breast was more than 100 µM in each case.
Take `Cc1ccc2c(c1)C(=O)C1(C2)Cc2cccc(C)c2C1=O` (stereo not given): the TGI with ACHN renal, in the test with COLO 205 colon, with HL-60(TB) leukemia, in the test on HOP-62 NSCLC, with HOP-92 NSCLC and in the test on NCI-H23 lung was more than 100 µM in each case. Moreover, the TGI with OVCAR-3 ovarian, with SK-MEL-28 melanoma, in the test with SN12C renal and in the test on T-47D breast was more than 100 µM in each case.
With `CC(=O)OCC1OC(n2c3c(cc(C#N)c2=S)CCCCC3)C(OC(C)=O)C(OC(C)=O)C1OC(C)=O` (stereo not given), the total growth inhibition concentration (TGI) in the test on ACHN renal, with COLO 205 colon, in the test with HL-60(TB) leukemia, with HOP-62 NSCLC, in the test on HOP-92 NSCLC and with NCI-H23 lung was more than 100 µM each time. Also, the TGI in the test on OVCAR-3 ovarian, with SK-MEL-28 melanoma, in the test with SN12C renal and with T-47D breast was more than 100 µM in each case.
As for `C=CCOc1ccc(C2C(C(=O)OCC)C(=O)CC(C)(O)C2C(=O)OCC)cc1OC` (stereo not given), the TGI in the test with ACHN renal, in the test on COLO 205 colon, in the test with HL-60(TB) leukemia, in the test with HOP-62 NSCLC, in the test on HOP-92 NSCLC and with NCI-H23 lung was more than 100 µM throughout. For the same compound, the TGI in the test with OVCAR-3 ovarian, in the test with SK-MEL-28 melanoma, with SN12C renal and in the test with T-47D breast was more than 100 µM each time.
Regarding `CC(C)NC(=O)OCCN=c1c2ccccc2ccc2ccccc12`, the TGI was more than 100 µM in the test on ACHN renal; more than 100 µM with COLO 205 colon; 43.9 µM in the test on HL-60(TB) leukemia; more than 100 µM in the test with HOP-62 NSCLC; 88 µM with HOP-92 NSCLC; more than 100 µM in the test with NCI-H23 lung. The TGI in the test with OVCAR-3 ovarian was 95.6 µM; with SK-MEL-28 melanoma, more than 100 µM; with SN12C renal it was more than 100 µM; in the test with T-47D breast, 67.6 µM.
Consider `C#C[C@]1(O)CC[C@H]2[C@@H]3CCC4=C/C(=N/OC(=O)c5cccc6c(=O)c7ccccc7[nH]c56)CC[C@@H]4[C@H]3CC[C@@]21C`, for which the TGI is more than 100 µM in the test with ACHN renal; 77.1 µM in the test with COLO 205 colon; 39.8 µM with HL-60(TB) leukemia; more than 100 µM in the test with HOP-62 NSCLC; more than 100 µM with HOP-92 NSCLC; more than 100 µM in the test on NCI-H23 lung. Further, the TGI in the test with OVCAR-3 ovarian is more than 100 µM; in the test on SK-MEL-28 melanoma, more than 100 µM; with SN12C renal it was more than 100 µM; in the test on T-47D breast it was 91.1 µM.
`N#Cc1c(Cl)cc(Cl)n2c1nc1ccccc12`: the TGI in the test on ACHN renal was 6.65 µM; with COLO 205 colon it was 21.2 µM; in the test with HL-60(TB) leukemia it was more than 31.1 µM; in the test with HOP-62 NSCLC, 51.7 µM; in the test on HOP-92 NSCLC it was more than 21.9 µM; in the test with NCI-H23 lung, 39.9 µM. The TGI in the test with OVCAR-3 ovarian was 15.6 µM; in the test on SK-MEL-28 melanoma, 20.3 µM; in the test on SN12C renal, 42.1 µM; with T-47D breast, 31.8 µM.
With `COC1C=COC2(C)Oc3c(C)c(O)c4c(O)c(c(C5SCCS5)c(O)c4c3C2=O)NC(=O)C(C)=C/C=C\C(C)C2OC(C)(C)OC(C2C)C(C)C(OC(C)=O)C1C` (stereo not given), the TGI was 6.53 µM in the test with ACHN renal; more than 100 µM in the test on COLO 205 colon; 17.4 µM with HL-60(TB) leukemia; 74.4 µM with HOP-62 NSCLC; 24.9 µM in the test with HOP-92 NSCLC; 80.9 µM with NCI-H23 lung. Besides, the TGI was more than 100 µM in the test on OVCAR-3 ovarian, more than 100 µM in the test with SK-MEL-28 melanoma, 16.6 µM with SN12C renal and more than 100 µM in the test with T-47D breast.
Consider `[N-]=[N+]=NC1=C(c2ccccn2)C(=O)c2cccc3cccc1c23`, for which the TGI in the test with ACHN renal, with COLO 205 colon, in the test with HL-60(TB) leukemia, in the test with HOP-62 NSCLC, with HOP-92 NSCLC and in the test on NCI-H23 lung was more than 100 µM each time. Further, the TGI in the test with OVCAR-3 ovarian, in the test on SK-MEL-28 melanoma, in the test on SN12C renal and with T-47D breast was more than 100 µM in each case.
As to `CCOC(=O)NC(Nc1ccc([N+](=O)[O-])cc1)(C(F)(F)F)C(F)(F)F`, the TGI in the test with ACHN renal, in the test with COLO 205 colon, with HL-60(TB) leukemia, in the test on HOP-62 NSCLC, in the test on HOP-92 NSCLC and in the test with NCI-H23 lung was more than 100 µM each time. Also, the TGI in the test with OVCAR-3 ovarian, in the test with SK-MEL-28 melanoma, in the test on SN12C renal and in the test with T-47D breast was more than 100 µM in each case.
Consider `CCOc1ccc(/C=C2/C(=O)N=C(NC(C)=O)N2C)cc1`, for which the TGI is more than 100 µM in the test with ACHN renal; more than 100 µM in the test on COLO 205 colon; 71.7 µM with HL-60(TB) leukemia; more than 100 µM with HOP-62 NSCLC; more than 100 µM in the test on HOP-92 NSCLC; more than 100 µM in the test on NCI-H23 lung. For the same compound, the TGI in the test with OVCAR-3 ovarian, with SK-MEL-28 melanoma, with SN12C renal and with T-47D breast was more than 100 µM each time.
